Activity calls are given as the source filed them. The rule behind the calls is not given here.
Experiments:
[1] = target: T1, von Hippel-Lindau disease tumor suppressor/Ubiquitin carboxyl-terminal hydrolase 7 (Homo sapiens, UniProt Q93009+P40337); assay: PROTACT activity at USP7/VHL in human RS4;11 cells assessed as protein degradation at 10 nM measured after 24 hrs by Western blot analysis relative to control; assay type: cell-based
Target sequence in this assay (P40337 whole entry, looked up): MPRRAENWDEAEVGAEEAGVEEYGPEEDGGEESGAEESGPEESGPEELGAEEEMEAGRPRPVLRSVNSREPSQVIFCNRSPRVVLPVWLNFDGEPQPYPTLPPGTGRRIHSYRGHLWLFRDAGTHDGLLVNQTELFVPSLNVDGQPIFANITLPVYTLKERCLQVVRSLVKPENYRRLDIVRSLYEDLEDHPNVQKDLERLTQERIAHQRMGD
Target sequence in this assay (Q93009 whole entry, looked up): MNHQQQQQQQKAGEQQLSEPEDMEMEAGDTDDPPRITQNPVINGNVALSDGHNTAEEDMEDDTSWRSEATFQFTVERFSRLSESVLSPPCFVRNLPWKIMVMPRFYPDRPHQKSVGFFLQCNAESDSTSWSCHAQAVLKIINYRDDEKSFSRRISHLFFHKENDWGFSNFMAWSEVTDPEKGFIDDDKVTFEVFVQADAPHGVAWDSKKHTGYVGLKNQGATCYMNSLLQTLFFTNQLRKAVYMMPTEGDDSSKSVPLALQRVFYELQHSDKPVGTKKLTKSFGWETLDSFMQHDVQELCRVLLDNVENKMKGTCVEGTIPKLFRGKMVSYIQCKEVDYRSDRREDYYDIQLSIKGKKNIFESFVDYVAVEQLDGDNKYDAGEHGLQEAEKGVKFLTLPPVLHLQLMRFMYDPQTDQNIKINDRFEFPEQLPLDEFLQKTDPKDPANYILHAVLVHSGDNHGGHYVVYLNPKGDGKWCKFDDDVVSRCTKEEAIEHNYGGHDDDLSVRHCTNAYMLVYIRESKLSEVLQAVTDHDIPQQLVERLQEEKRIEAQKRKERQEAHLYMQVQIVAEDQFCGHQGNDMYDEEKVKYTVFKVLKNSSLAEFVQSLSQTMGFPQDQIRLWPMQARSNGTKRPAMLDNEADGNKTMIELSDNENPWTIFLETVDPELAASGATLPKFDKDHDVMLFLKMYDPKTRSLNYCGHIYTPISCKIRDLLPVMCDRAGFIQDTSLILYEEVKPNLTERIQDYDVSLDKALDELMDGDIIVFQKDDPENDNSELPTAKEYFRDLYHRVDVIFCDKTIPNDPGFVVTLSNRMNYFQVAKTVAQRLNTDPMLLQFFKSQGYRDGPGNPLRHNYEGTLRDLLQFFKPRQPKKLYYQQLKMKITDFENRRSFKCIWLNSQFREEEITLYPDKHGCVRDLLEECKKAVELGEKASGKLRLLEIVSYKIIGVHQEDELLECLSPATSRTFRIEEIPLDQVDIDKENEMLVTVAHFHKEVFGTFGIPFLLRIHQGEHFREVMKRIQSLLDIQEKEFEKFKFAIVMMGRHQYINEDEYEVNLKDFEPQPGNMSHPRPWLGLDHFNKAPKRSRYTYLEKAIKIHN

[2] = target: T1, von Hippel-Lindau disease tumor suppressor/Ubiquitin carboxyl-terminal hydrolase 7; assay: PROTACT activity at USP7/VHL in human RS4;11 cells assessed as protein degradation at 100 nM measured after 24 hrs by Western blot analysis relative to control; assay type: cell-based
Target sequence in this assay (P40337 whole entry, looked up): as the sequence (P40337 whole entry, looked up) above
Target sequence in this assay (Q93009 whole entry, looked up): as the sequence (Q93009 whole entry, looked up) above

[3] = target: T1, von Hippel-Lindau disease tumor suppressor/Ubiquitin carboxyl-terminal hydrolase 7; assay: PROTACT activity at USP7/VHL in human RS4;11 cells assessed as protein degradation measured after 24 hrs by Western blot analysis; assay type: cell-based
Target sequence in this assay (Q93009 whole entry): as the sequence (Q93009 whole entry, looked up) above
Target sequence in this assay (P40337 whole entry): as the sequence (P40337 whole entry, looked up) above

[4] = target: T1, von Hippel-Lindau disease tumor suppressor/Ubiquitin carboxyl-terminal hydrolase 7; assay: PROTACT activity at USP7/VHL in human RS4;11 cells assessed as maximal protein degradation measured after 24 hrs by Western blot analysis relative to control; assay type: cell-based
Target sequence in this assay (P40337 whole entry, looked up): as above
Target sequence in this assay (Q93009 whole entry, looked up): as the sequence (Q93009 whole entry, looked up) above

[5] = target: T1, von Hippel-Lindau disease tumor suppressor/Ubiquitin carboxyl-terminal hydrolase 7; assay: PROTACT activity at USP7/VHL in human REH cells assessed as protein degradation at 10 to 100 nM measured after 12 hrs by Western blot analysis; assay type: cell-based; conditions: dose 10-100 nM
Target sequence in this assay (P40337 whole entry, looked up): as the sequence (P40337 whole entry, looked up) above
Target sequence in this assay (Q93009 whole entry, looked up): as the sequence (Q93009 whole entry, looked up) above

[6] = target: T1, von Hippel-Lindau disease tumor suppressor/Ubiquitin carboxyl-terminal hydrolase 7; assay: PROTACT activity at USP7/VHL in human OCI-Ly10 cells assessed as protein degradation at 10 to 100 nM measured after 12 hrs by Western blot analysis; assay type: cell-based; conditions: dose 10-100 nM
Target sequence in this assay (P40337 whole entry, looked up): as the sequence (P40337 whole entry, looked up) above
Target sequence in this assay (Q93009 whole entry, looked up): as the sequence (Q93009 whole entry, looked up) above

[7] = target: T1, von Hippel-Lindau disease tumor suppressor/Ubiquitin carboxyl-terminal hydrolase 7; assay: PROTACT activity at USP7/VHL in human RS4;11 cells assessed as protein degradation at 10 nM measured after 2 to 4 hrs by Western blot analysis; assay type: cell-based; conditions: time 2-4 hrs
Target sequence in this assay (P40337 whole entry, looked up): as the sequence (P40337 whole entry, looked up) above
Target sequence in this assay (Q93009 whole entry, looked up): as the sequence (Q93009 whole entry, looked up) above

RS4-11 [8] = assay: Upregulation of p53 protein expression in human RS4-11 cells measured after 12 hrs incubation by Western blot analysis; assay type: functional, cell-based; conditions: dose 10-100 nM
RS4-11 [9] = assay: Upregulation of p21 protein expression in human RS4-11 cells measured after 12 hrs incubation by Western blot analysis; assay type: functional, cell-based; conditions: dose 10-100 nM
[10] = target: T1, von Hippel-Lindau disease tumor suppressor/Ubiquitin carboxyl-terminal hydrolase 7; assay: PROTACT activity at USP7/VHL in human RS4;11 cells assessed as protein degradation at 10 nM measured after 6 hrs in presence of VHL-binder by Western blot analysis; assay type: cell-based
[11] = target: T1, von Hippel-Lindau disease tumor suppressor/Ubiquitin carboxyl-terminal hydrolase 7; assay: PROTACT activity at USP7/VHL in human RS4;11 cells assessed as protein degradation at 10 nM measured after 6 hrs in presence of NEDD8-activating enzyme inhibitor […] by Western blot analysis; assay type: cell-based
[12] = target: T1, von Hippel-Lindau disease tumor suppressor/Ubiquitin carboxyl-terminal hydrolase 7; assay: PROTACT activity at USP7/VHL in human RS4;11 cells assessed as protein degradation at 10 nM measured after 6 hrs in presence of proteasome inhibitors PS-341 by Western blot analysis; assay type: cell-based
[13] = target: T1, von Hippel-Lindau disease tumor suppressor/Ubiquitin carboxyl-terminal hydrolase 7; assay: PROTACT activity at USP7/VHL in human RS4;11 cells assessed as protein degradation at 10 nM measured after 6 hrs in presence of proteasome inhibitors PS-171 by Western blot analysis; assay type: cell-based
RS4-11 [14] = assay: Antiproliferative activity against human RS4-11 cells with wild type p53 assessed as cell viability measured after 3 days by PMS-MTS assay; assay type: functional, cell-based; conditions: RS4-11, 72 h
RS4-11 [15] = assay: Antiproliferative activity against human RS4-11 cells with shp53 assessed as cell viability measured after 7 days by PMS-MTS assay; assay type: functional, cell-based; conditions: RS4-11, 168 h
REH = assay: Antiproliferative activity against human REH cells with wild type p53 assessed as cell viability measured after 3 days by PMS-MTS assay; assay type: functional, cell-based; conditions: 72 h
RS4-11 [16] = assay: Induction of apoptosis in human RS4-11 cells assessed as viable cells at 1 nM measured after 72 hrs by FITC-annexin-V/PI analysis (reference value: 91.41%); assay type: functional; conditions: read-out: Activity
RS4-11 [17] = assay: Induction of apoptosis in human RS4-11 cells assessed as early apoptotic cells at 1 nM measured after 72 hrs by FITC-annexin-V/PI analysis (reference value: 5.36%); assay type: functional
RS4-11 [18] = assay: Induction of apoptosis in human RS4-11 cells assessed as late apoptotic cells at 1 nM measured after 72 hrs by FITC-annexin-V/PI analysis (reference value: 3.23%); assay type: functional
RS4-11 [19] = assay: Induction of apoptosis in human RS4-11 cells assessed as necrotic cells at 1 nM measured after 72 hrs by FITC-annexin-V/PI analysis (reference value: 0%); assay type: functional
RS4-11 [20] = assay: Induction of apoptosis in human RS4-11 cells assessed as viable cells at 10 nM measured after 72 hrs by FITC-annexin-V/PI analysis (reference value: 91.41%); assay type: functional; conditions: read-out: Activity
RS4-11 [21] = assay: Induction of apoptosis in human RS4-11 cells assessed as early apoptotic cells at 10 nM measured after 72 hrs by FITC-annexin-V/PI analysis (reference value: 5.36%); assay type: functional
RS4-11 [22] = assay: Induction of apoptosis in human RS4-11 cells assessed as late apoptotic cells at 10 nM measured after 72 hrs by FITC-annexin-V/PI analysis (reference value: 3.23%); assay type: functional
RS4-11 [23] = assay: Induction of apoptosis in human RS4-11 cells assessed as necrotic cells at 10 nM measured after 72 hrs by FITC-annexin-V/PI analysis (reference value: 0%); assay type: functional
RS4-11 [24] = assay: Induction of apoptosis in human RS4-11 cells assessed as viable cells at 100 nM measured after 72 hrs by FITC-annexin-V/PI analysis (reference value: 91.41%); assay type: functional; conditions: read-out: Activity
RS4-11 [25] = assay: Induction of apoptosis in human RS4-11 cells assessed as viable cells at 1000 nM measured after 72 hrs by FITC-annexin-V/PI analysis (reference value: 91.41%); assay type: functional; conditions: read-out: Activity
RS4-11 [26] = assay: Induction of apoptosis in human RS4-11 cells assessed as late apoptotic cells at 1000 nM measured after 72 hrs by FITC-annexin-V/PI analysis (reference value: 3.23%); assay type: functional
RS4-11 [27] = assay: Induction of cell cycle arrest in human RS4-11 cells assessed as assessed as accumulation cells at G1/G0 phase measured after 12 hrs by flow cytometry; assay type: functional, cell-based; conditions: dose 1-1000 nM
RS4-11 [28] = assay: Antitumor activity against human RS4-11 cells xenografted in NOD/SCID mouse model assessed as tumor growth inhibition at 5 mg/kg, ip daily measured after 18 days relative to control; assay type: functional; conditions: RS4-11, 432 h, time 18 day, read-out: TGI
RS4-11 [29] = assay: Antitumor activity against human RS4-11 cells xenografted in NOD/SCID mouse model assessed as tumor growth inhibition at 10 mg/kg, ip daily measured after 18 days relative to control; assay type: functional; conditions: RS4-11, 432 h, time 18 day, read-out: TGI
RS4-11 [30] = assay: Antitumor activity against human RS4-11 cells xenografted in NOD/SCID mouse model assessed as tumor growth inhibition at 20 mg/kg, ip daily measured after 18 days relative to control; assay type: functional; conditions: RS4-11, 432 h, time 18 day, read-out: TGI
[31] = Toxicity in NOD/SCID mouse xenografted with human RS4-11 cells assessed as signs of toxicity at 5 to 20 mg/kg, ip daily measured after 18 days relative to control; assay type: organism-based; conditions: in vivo, 432 h, dose 5-20 mg/kg, time 18 day
RS4-11 [32] = assay: Antitumor activity against human RS4-11 cells xenografted in NOD/SCID mouse model assessed as decrease in USP7 level in tumor at 5 to 20 mg/kg, ip daily measured after 18 days relative to control; assay type: functional, organism-based; conditions: dose 5-20 mg/kg, time 18.0 day

Activity [1]: 91.6%
Activity [2]: 91.7%
DC50 [3]: 0.74 nM
Emax [4]: 93.1%
Activity [5]: Active
Activity [6]: Active
Activity [7]: Active
Activity [10]: inactive
Activity [11]: inactive
Activity [12]: inactive
Activity [13]: inactive
IC50 (RS4-11 [14]): 0.5 nM
IC50 (RS4-11 [15]): > 20000 nM
SMILES: Cc1ncsc1-c1ccc([C@H](C)NC(=O)[C@@H]2C[C@@H](O)CN2C(=O)[C@@H](c2cc(N3CCN(Cc4ccc(-c5c6ncn(CC7(O)CCN(C(=O)C[C@@H](C)c8ccccc8)CC7)c(=O)c6nn5C)cc4)CC3)no2)C(C)C)cc1
Activity (RS4-11 [8]): Dose-Dependent Effect
Activity (RS4-11 [9]): Dose-Dependent Effect
IC50 (REH): 8.3 nM
viability at 0.001 µM (RS4-11 [16]): 74.6%
Activity (RS4-11 [17]): 12.45%
Activity (RS4-11 [18]): 12.98%
Activity (RS4-11 [19]): 0%
viability at 0.01 µM (RS4-11 [20]): 65.7%
Activity (RS4-11 [21]): 17.36%
Activity (RS4-11 [22]): 16.98%
Activity (RS4-11 [23]): 0.01%
viability at 0.1 µM (RS4-11 [24]): 59.7%
viability at 1 µM (RS4-11 [25]): 55.3%
Activity (RS4-11 [26]): 24.89%
Activity (RS4-11 [27]): Dose-Dependent Effect
inhibition in vivo at 5 mg/kg (RS4-11 [28]): 64.7%
inhibition in vivo at 10 mg/kg (RS4-11 [29]): 60.8%
inhibition in vivo at 20 mg/kg (RS4-11 [30]): 78.7%
Activity [31]: Non-Toxic
Activity (RS4-11 [32]): Active

Reference: ChEMBL document CHEMBL5550201, “Discovery of a Highly Potent, Selective and Efficacious USP7 Degrader for the Treatment of Acute Lymphoblastic Leukemia” (J Med Chem, 2024)
